Test results as given in patent publication US20240350493A1 (Kadmon Corporation, LLC, priority 2022, published 2024).
Entries after “also recorded” stand apart in the source; their conditions may differ. Read-outs that look alike come from different tables or passages of the source.

Key:
[1] = phase I two-part drug-drug interaction study, plasma pharmacokinetics (Example 1); format: in vivo, human; settings: male, human, plasma, oral
Text: The secondary objective was to provide additional information on the safety and tolerability of this dose regimen in healthy males.
(§1) This was a single center, non-randomized, DDI study in 35 (Part 1) and 38 (Part 2) healthy males. The key inclusion criterion was males aged 18 to 55 years (inclusive). […] In Part 2, co-administration with omeprazole was studied. The study design is illustrated in FIG. 1.
(§2) At least a 2-to 8-day washout occurred between each period to account for a minimum of 5 half-lives of the active moieties dosed in the preceding period.
Blood samples were collected into 6 mL K,EDTA tubes and were processed within 30 minutes of collection. The resultant plasma was then frozen within 90 minutes of collection and stored at […] until shipment to the bioanalytical laboratory.
For each comparison, PK parameters were natural log transformed and analyzed using mixed effect modeling with treatment included as a fixed effect and subject as a random effect. Adjusted geometric mean ratios (GMRs) and corresponding 90% CIs were calculated.

pregnant rabbits = assay: embryo-fetal developmental study in rabbits; settings: rabbit
P-gp = P-gp (Homo sapiens, UniProt P08183); assay: transporter substrate, in vitro; format: in vitro ADME
healthy male subjects = assay: phase I drug-drug interaction study, safety and tolerability (Example 1); format: in vivo, human
Text: as §1, §2
Safety and tolerability of belumosudil was the secondary endpoint of the study and was evaluated by AEs, vital signs, physical examinations, electrocardiograms (ECGs), and clinical laboratory tests. All subjects who received at least one dose of belumosudil or perpetrator compound were included in the safety population.

OATPIB1 = OATPIB1 (Homo sapiens, UniProt Q9Y6L6); assay: transporter inhibition, in vitro; format: in vitro ADME; settings: at clinically relevant concentrations
UGT1A9 = UGT1A9 (Homo sapiens, UniProt O60656); assay: enzyme inhibition, in vitro; format: in vitro ADME
[2] = test system: human peripheral blood lymphocytes (HPBL); assay: in vitro chromosome aberration assay; format: cell-based

Chain of P-gp (P08183 whole entry): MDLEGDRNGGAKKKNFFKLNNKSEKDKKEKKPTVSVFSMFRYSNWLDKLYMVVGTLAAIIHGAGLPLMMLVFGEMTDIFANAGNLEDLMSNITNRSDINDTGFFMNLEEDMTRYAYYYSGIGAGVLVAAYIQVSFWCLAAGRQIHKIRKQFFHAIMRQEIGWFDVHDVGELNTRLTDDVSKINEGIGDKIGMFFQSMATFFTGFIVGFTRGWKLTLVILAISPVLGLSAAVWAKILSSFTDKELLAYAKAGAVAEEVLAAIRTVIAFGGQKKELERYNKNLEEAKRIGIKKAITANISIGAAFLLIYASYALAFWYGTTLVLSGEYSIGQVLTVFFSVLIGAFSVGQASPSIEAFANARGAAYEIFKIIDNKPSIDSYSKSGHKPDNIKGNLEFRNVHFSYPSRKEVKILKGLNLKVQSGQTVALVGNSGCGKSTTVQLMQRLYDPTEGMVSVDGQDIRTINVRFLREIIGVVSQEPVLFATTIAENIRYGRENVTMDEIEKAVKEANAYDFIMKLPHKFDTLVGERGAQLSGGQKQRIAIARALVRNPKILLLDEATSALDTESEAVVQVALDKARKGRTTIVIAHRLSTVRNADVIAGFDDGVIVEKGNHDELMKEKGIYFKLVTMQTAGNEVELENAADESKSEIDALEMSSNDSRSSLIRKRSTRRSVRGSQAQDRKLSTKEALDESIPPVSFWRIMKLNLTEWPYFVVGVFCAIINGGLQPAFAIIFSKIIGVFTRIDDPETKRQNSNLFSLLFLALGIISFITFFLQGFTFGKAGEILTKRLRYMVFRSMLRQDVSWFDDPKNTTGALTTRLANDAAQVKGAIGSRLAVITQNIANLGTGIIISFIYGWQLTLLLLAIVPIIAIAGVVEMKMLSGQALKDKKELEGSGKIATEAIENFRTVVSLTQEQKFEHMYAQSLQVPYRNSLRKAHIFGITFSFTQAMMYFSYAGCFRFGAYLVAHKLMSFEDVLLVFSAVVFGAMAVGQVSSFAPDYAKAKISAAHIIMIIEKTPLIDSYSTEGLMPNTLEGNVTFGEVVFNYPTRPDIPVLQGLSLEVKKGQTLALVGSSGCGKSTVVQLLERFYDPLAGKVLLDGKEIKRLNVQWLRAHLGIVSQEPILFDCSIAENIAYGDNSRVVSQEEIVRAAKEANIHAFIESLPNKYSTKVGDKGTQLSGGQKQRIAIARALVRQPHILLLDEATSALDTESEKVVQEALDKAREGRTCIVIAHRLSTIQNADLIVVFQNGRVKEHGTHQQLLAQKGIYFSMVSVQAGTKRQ
Chain of UGT1A9 (O60656 26-530): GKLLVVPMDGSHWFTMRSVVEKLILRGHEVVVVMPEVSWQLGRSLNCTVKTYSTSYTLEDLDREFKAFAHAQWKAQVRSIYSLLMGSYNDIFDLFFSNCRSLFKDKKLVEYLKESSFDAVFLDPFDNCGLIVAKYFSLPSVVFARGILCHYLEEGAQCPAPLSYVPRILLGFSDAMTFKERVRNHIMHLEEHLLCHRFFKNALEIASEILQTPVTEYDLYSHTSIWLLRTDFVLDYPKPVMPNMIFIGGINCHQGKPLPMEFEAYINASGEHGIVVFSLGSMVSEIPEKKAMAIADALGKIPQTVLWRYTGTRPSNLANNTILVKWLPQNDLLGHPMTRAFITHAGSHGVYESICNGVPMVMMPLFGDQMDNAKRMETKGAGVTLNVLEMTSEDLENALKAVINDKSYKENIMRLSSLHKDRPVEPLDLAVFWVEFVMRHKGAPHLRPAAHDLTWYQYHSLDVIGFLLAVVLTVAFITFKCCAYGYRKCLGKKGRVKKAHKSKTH
Chain of OATPIB1 (Q9Y6L6 whole entry): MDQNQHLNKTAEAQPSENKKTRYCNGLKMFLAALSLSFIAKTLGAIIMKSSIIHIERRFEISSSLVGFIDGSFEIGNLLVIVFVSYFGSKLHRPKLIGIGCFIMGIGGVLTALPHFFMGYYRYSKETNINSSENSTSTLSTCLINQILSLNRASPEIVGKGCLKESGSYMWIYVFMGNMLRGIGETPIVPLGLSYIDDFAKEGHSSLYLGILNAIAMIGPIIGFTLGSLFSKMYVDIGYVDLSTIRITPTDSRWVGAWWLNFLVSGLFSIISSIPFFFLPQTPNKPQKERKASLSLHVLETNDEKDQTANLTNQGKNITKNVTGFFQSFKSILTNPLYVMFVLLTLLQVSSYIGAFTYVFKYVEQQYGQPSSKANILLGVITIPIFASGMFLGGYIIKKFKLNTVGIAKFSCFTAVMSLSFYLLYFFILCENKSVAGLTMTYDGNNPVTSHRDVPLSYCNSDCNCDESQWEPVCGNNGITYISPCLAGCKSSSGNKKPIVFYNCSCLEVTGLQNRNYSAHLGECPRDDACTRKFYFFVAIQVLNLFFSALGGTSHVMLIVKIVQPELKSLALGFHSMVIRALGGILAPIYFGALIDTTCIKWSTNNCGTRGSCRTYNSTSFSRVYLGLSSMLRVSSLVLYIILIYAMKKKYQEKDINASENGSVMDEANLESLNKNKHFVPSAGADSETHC

## CC(C)NC(=O)COc1cccc(-c2nc(Nc3ccc4[nH]ncc4c3)c3ccccc3n2)c1 [Belumosudil, 2-{3-[4-(1H-indazol-5-ylamino)-2-quinazolinyl]phenoxy}-N-(propan-2-yl) acetamide]
[1]; 200 mg belumosudil single dose + rabeprazole, read-out: Cmax, geometric mean (geometric CV %)
  Cmax: 227 ng/mL
[1]; 200 mg belumosudil single dose + rabeprazole, read-out: Tmax, median (range)
  Tmax: 5 h
[1]; 200 mg belumosudil single dose + rabeprazole, read-out: t1/2, arithmetic mean (SD) (converted)
  half-life: 10.4 h
[1]; 200 mg belumosudil single dose + rabeprazole, read-out: t1/2, geometric mean (geometric CV %) (converted)
  half-life: 7.8 h
[1]; 200 mg belumosudil single dose + rifampicin, read-out: AUC0-24, arithmetic mean (SD)
  AUC from 0 to 24 h: 2630 ng·h/mL
[1]; 200 mg belumosudil single dose + rifampicin, read-out: AUC0-24, geometric mean (geometric CV %)
  AUC from 0 to 24 h: 2490 ng·h/mL
[1]; 200 mg belumosudil single dose + rifampicin, read-out: AUCinf, arithmetic mean (SD)
  AUC(0-inf): 2640 ng·h/mL
[1]; 200 mg belumosudil single dose + rifampicin, read-out: AUCinf, geometric mean (geometric CV %)
  AUC(0-inf): 2500 ng·h/mL
[1]; 200 mg belumosudil single dose + rifampicin, read-out: AUClast, arithmetic mean (SD)
  AUC(0-t): 2580 ng·h/mL
[1]; 200 mg belumosudil single dose + rifampicin, read-out: AUClast, geometric mean (geometric CV %)
  AUC(0-t): 2440 ng·h/mL
[1]; 200 mg belumosudil single dose + rifampicin, read-out: Cmax, arithmetic mean (SD)
  Cmax: 753 ng/mL
[1]; 200 mg belumosudil single dose + rifampicin, read-out: Cmax, geometric mean (geometric CV %)
  Cmax: 712 ng/mL
[1]; 200 mg belumosudil single dose + rifampicin, read-out: Tmax, median (range)
  Tmax: 3 h
[1]; 200 mg belumosudil single dose + rifampicin, read-out: t1/2, arithmetic mean (SD) (converted)
  half-life: 2.36 h
[1]; 200 mg belumosudil single dose + rifampicin, read-out: t1/2, geometric mean (geometric CV %) (converted)
  half-life: 2.17 h
[1]; 200 mg, 200 mg belumosudil BID alone, first dose, read-out: Cmax, arithmetic mean (SD)
  Cmax: 1880 ng/mL
[1]; 200 mg, 200 mg belumosudil BID alone, first dose, read-out: Cmax, geometric mean (geometric CV %)
  Cmax: 1790 ng/mL
[1]; 200 mg, 200 mg belumosudil BID alone, first dose, read-out: Tmax, median (range)
  Tmax: 3 h
[1]; 200 mg, 200 mg belumosudil BID alone, second dose, read-out: Cmax, arithmetic mean (SD)
  Cmax: 1870 ng/mL
[1]; 200 mg, 200 mg belumosudil BID alone, second dose, read-out: Cmax, geometric mean (geometric CV %)
  Cmax: 1760 ng/mL
[1]; 200 mg, 200 mg belumosudil BID alone, second dose, read-out: Tmax, median (range)
  Tmax: 15 h
[1]; 200 mg, 200 mg belumosudil BID alone, read-out: AUC0-24, arithmetic mean (SD)
  AUC from 0 to 24 h: 17900 ng·h/mL
[1]; 200 mg, 200 mg belumosudil BID alone, read-out: AUC0-24, geometric mean (geometric CV %)
  AUC from 0 to 24 h: 16800 ng·h/mL
[1]; 200 mg, 200 mg belumosudil BID alone, read-out: AUCinf, arithmetic mean (SD)
  AUC(0-inf): 20100 ng·h/mL
[1]; 200 mg, 200 mg belumosudil BID alone, read-out: AUCinf, geometric mean (geometric CV %)
  AUC(0-inf): 18800 ng·h/mL
[1]; 200 mg, 200 mg belumosudil BID alone, read-out: AUClast, arithmetic mean (SD)
  AUC(0-t): 20300 ng·h/mL
[1]; 200 mg, 200 mg belumosudil BID alone, read-out: AUClast, geometric mean (geometric CV %)
  AUC(0-t): 18900 ng·h/mL
[1]; 200 mg, 200 mg belumosudil BID alone, read-out: t1/2, arithmetic mean (SD) (converted)
  half-life: 7.15 h
[1]; 200 mg, 200 mg belumosudil BID alone, read-out: t1/2, geometric mean (geometric CV %) (converted)
  half-life: 6.86 h
[1]; 200 mg, 200 mg belumosudil single dose alone, read-out: AUC0-24, arithmetic mean (SD)
  AUC from 0 to 24 h: 8830 ng·h/mL
[1]; 200 mg, 200 mg belumosudil single dose alone, read-out: AUC0-24, geometric mean (geometric CV %)
  AUC from 0 to 24 h: 8430 ng·h/mL
[1]; 200 mg, 200 mg belumosudil single dose alone, read-out: AUCinf, arithmetic mean (SD)
  AUC(0-inf): 9580 ng·h/mL
[1]; 200 mg, 200 mg belumosudil single dose alone, read-out: AUCinf, geometric mean (geometric CV %)
  AUC(0-inf): 9080 ng·h/mL
[1]; 200 mg, 200 mg belumosudil single dose alone, read-out: AUClast, arithmetic mean (SD)
  AUC(0-t): 9220 ng·h/mL
[1]; 200 mg, 200 mg belumosudil single dose alone, read-out: AUClast, geometric mean (geometric CV %)
  AUC(0-t): 8750 ng·h/mL
[1]; 200 mg, 200 mg belumosudil single dose alone, read-out: Cmax, arithmetic mean (SD)
  Cmax: 1850 ng/mL
[1]; 200 mg, 200 mg belumosudil single dose alone, read-out: Cmax, geometric mean (geometric CV %)
  Cmax: 1770 ng/mL
[1]; 200 mg, 200 mg belumosudil single dose alone, read-out: Tmax, median (range)
  Tmax: 3 h
[1]; 200 mg, 200 mg belumosudil single dose alone, read-out: t1/2, arithmetic mean (SD) (converted)
  half-life: 9.28 h
[1]; 200 mg, 200 mg belumosudil single dose alone, read-out: t1/2, geometric mean (geometric CV %) (converted)
  half-life: 7.89 h
[1]; coadministration of rabeprazole, read-out: delay of median Tmax
  Tmax: 2 h
Pregnant rabbits
  maternal exposures (AUC) with adverse developmental outcomes, times human exposure at recommended dose: ≥ 0.07 times
P-gp
  P-gp substrate: substrate
Healthy male subjects; Periods 1, 2, and 4
  treatment-emergent AEs (TEAEs) reported: 33
Healthy male subjects; all mild: abdominal distension, hot flush, fatigue
  AEs considered possibly related to belumosudil: Three
Healthy male subjects; ankle fracture after belumosudil+itraconazole, considered unrelated
  serious AE (SAE): One
Healthy male subjects; belumosudil alone
  subjects reporting gastrointestinal disorders: 3 subjects
Healthy male subjects; belumosudil+itraconazole
  subjects reporting gastrointestinal disorders: 5 subjects
Healthy male subjects; in vivo
  deaths or AEs leading to subject withdrawal: no deaths or AEs leading to subject withdrawal
Healthy male subjects; with and without perpetrator compounds
  safety profile: unremarkable; also recorded: safe, and no notable adverse events were reported
OATPIB1
  OATPIB1 inhibition: inhibits
UGT1A9
  UGT1A9 inhibition: inhibitor
[2]
  genotoxicity: not genotoxic
